One data set concerns the target T1, hAMY3R (Homo sapiens, UniProt O60896+P30988).
T1 sequence (P30988 25-474): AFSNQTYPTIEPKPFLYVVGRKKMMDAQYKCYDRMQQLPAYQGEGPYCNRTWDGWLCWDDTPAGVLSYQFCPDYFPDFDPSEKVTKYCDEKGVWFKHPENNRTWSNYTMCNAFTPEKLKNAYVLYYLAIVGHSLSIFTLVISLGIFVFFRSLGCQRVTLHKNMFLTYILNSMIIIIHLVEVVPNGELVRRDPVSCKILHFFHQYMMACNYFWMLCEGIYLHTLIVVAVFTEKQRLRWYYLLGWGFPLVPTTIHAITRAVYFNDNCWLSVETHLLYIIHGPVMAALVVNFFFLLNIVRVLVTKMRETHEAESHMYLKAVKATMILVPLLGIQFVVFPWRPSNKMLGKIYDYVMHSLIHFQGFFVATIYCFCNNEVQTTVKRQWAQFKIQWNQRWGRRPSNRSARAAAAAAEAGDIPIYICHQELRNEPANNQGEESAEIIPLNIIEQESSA
T1 sequence (O60896 24-148 partner): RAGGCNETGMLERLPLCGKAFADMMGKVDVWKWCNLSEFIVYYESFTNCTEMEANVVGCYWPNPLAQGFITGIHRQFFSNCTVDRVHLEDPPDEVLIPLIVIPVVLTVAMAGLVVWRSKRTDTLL
The data set can be described thus: cAMP-responsive element luciferase reporter assay, human AMY3R. Format: cell-based. More on the design: expressed in transfected cells. The conditions noted are these: for EC50: read-out: hAMY3R pEC50 (converted); for pEC50: BHK cells stably expressing hCTR+RAMP3 and CRE-luciferase, 3 h, 37 °C, 10% FBS, read-out: hAMY3R EC50; for ratio hCTR/hAMY3R: ratio of luciferase EC50 values. Background: In a reporter assay the amount or activity of a reporter protein is the signal.

A short description of data set [1]: ThT assay: fibril formation propensity and peptide recovery. The format is physicochemical. The conditions noted are these: for ThT, pH 7.5 lag-time: 10 mM HEPES pH 7.5, 1 μM ThT; for recovery: residual dissolved peptide after 45 h of shaking, centrifugation and 0.22 μm filtration, HPLC, relative to amount before stress. The gist of the method:
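Fibrillation lag time is read visually from ThT fluorescence-time curves (444/485 nm, 20-min reads, 45 h, 37 °C, 960 rpm shaking) of 250 μM peptide with 1 μM ThT at pH 4.0 or 7.5. The most conservative of four replicates is used. Peptide recovery is post-stress soluble peptide (HPLC, 215/276 nm) as fraction of initial.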

A short description of data set [2]: Solubility versus pH profile.
A short description of data set [3]: HMWP content by size-exclusion chromatography. The format is physicochemical. The conditions noted are these: covalent dimers and polymers prior to fibril formation testing, SEC, % of total absorbance area at 215 nm. The procedure, abridged: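 HMWP percentage is the covalent dimer/polymer peak area relative to total absorbance area, with extinction coefficients taken as equal to the main peak. Isocratic size-exclusion elution used 50% (v/v) 2-propanol containing 0.5 M NaCl and phosphate buffer; measured on analogs prior to fibril assays.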
(In gel filtration, larger molecules generally elute earlier.)

[4] abbreviates: luciferase (human receptor assay), Tables S12 and S14.
[5] abbreviates: luciferase (human receptor assay).
Where [6] appears, read: 250 μM peptide, 37 °C, 960 rpm, 45 h, lowest of four replicas, average of experiments.
Where [7] appears, read: bis-tris-propane buffer, pH 6, aqueous buffer.
Where [8] appears, read: bis-tris-propane buffer, pH 6.5, aqueous buffer.
Setting [9] is: bis-tris-propane buffer, pH 7, aqueous buffer.
Setting [10] is: bis-tris-propane buffer, pH 7.5, aqueous buffer.
[11] abbreviates: bis-tris-propane buffer, pH 8, aqueous buffer.
The mark [12] stands for this setting: lactate buffer, pH 4, aqueous buffer.
[13] abbreviates: lactate buffer, pH 5, aqueous buffer.

pEC50: −log10 of the molar value. ≈ marks a conversion by molar mass, not a printed value. Read-outs that look alike come from different tables or passages of the source. Numbered stars: 1 amine (or outer) side, 2 acyl side, 3 side chain; on linkers, the order of the positions; unused ones are H or OH. Bridge positions count the residues as written; N and C are the ends. Side chains are listed from the residue outwards. Peptide text beside a SMILES is read from it. * marks the point of attachment. C20 diacid = O=C(O)CCCCCCCCCCCCCCCCCCC(=O)*; γGlu = O=C(O)[C@H](CCC(=O)[*:2])N[*:1]

As for `CC(C)C[C@H](NC(=O)[C@H](CCCNC(=N)N)NC(=O)[C@H](CCC(N)=O)NC(=O)[C@@H](NC(=O)[C@H](C)NC(=O)[C@@H]1CSSC[C@H](NC(=O)[C@@H](N)CCCCNC(=O)CC[C@H](NC(=O)CC[C@H](NC(=O)CCCCCCCCCCCCCCCCCCC(=O)O)C(=O)O)C(=O)O)C(=O)N[C@@H](CC(N)=O)C(=O)N[C@@H]([C@@H](C)O)C(=O)N[C@@H](C)C(=O)N[C@@H]([C@@H](C)O)C(=O)N1)[C@@H](C)O)C(=O)N[C@@H](C)C(=O)N[C@@H](CC(=O)O)C(=O)N[C@@H](Cc1ccccc1)C(=O)N[C@@H](CC(C)C)C(=O)N[C@@H](CCCNC(=N)N)C(=O)N[C@@H](Cc1c[nH]cn1)C(=O)N[C@@H](CO)C(=O)N[C@@H](CO)C(=O)N1CCC[C@H]1C(=O)N[C@@H](CC(N)=O)C(=O)N[C@@H](Cc1ccccc1)C(=O)NCC(=O)N[C@@H](C)C(=O)N1CCC[C@H]1C(=O)N[C@@H](CC(C)C)C(=O)N[C@@H](CO)C(=O)N[C@@H](CO)C(=O)N[C@H](C(=O)N[C@@H](CC(N)=O)C(=O)N[C@H](C(=O)NCC(=O)N[C@@H](CO)C(=O)N[C@@H](CC(=O)O)C(=O)N[C@H](C(=O)N[C@@H](Cc1ccc(O)cc1)C(N)=O)[C@@H](C)O)C(C)C)[C@@H](C)O` [Peptide 5] (H-K([γGlu-γGlu-C20 diacid])CNTATCATQRLADFLRHSSPNFGAPLSSTNVGSDTY-NH2; disulfide 2-7), the EC50 on hAMY3R (setting [4]) is 0.219 nM. In addition, the pEC50 (in general, −log10 of the EC50, conventionally taken in molar units) at hAMY3R (setting [5]) was 9.66. Also, at hAMY3R, the “ratio hCTR/hAMY3R” value is given as 12. Besides, in data set [1] (setting [6]), the “ThT, pH 7.5 lag-time” value was 35 h. In data set [1] (pH 7.5), the recovery worked out at 100%. The kinetic solubility in data set [2] (setting [7]), in data set [2] (setting [8]), in data set [2] (setting [9]), in data set [2] (setting [10]), in data set [2] (setting [11]) and in data set [2] (setting [12]) was not below 200 µM in each case. The kinetic solubility (usually the concentration staying in solution when a stock, usually in DMSO, is diluted into the medium) in data set [2] (setting [13]) is 172 µM (≈ 776 µg/mL). In data set [3] (analogs 1–9 (pH 7.5 series)), this compound registered an HMWP of 7%.

For the compound `CC[C@H](C)[C@H](NC(=O)[C@@H]1CCCN1C(=O)CNC(=O)[C@H](Cc1ccccc1)NC(=O)[C@H](CC(N)=O)NC(=O)[C@@H]1CCCN1C(=O)[C@H](CO)NC(=O)[C@H](CO)NC(=O)[C@H](Cc1c[nH]cn1)NC(=O)[C@H](CCCNC(=N)N)NC(=O)[C@H](CC(C)C)NC(=O)[C@H](Cc1ccccc1)NC(=O)[C@H](CC(=O)O)NC(=O)[C@H](C)NC(=O)[C@H](CC(C)C)NC(=O)[C@H](CCCNC(=N)N)NC(=O)[C@H](CCC(N)=O)NC(=O)[C@@H](NC(=O)[C@H](C)NC(=O)[C@@H]1CSSC[C@H](NC(=O)[C@@H](N)CCCCNC(=O)CC[C@H](NC(=O)CC[C@H](NC(=O)CCCCCCCCCCCCCCCCCCC(=O)O)C(=O)O)C(=O)O)C(=O)N[C@@H](CC(N)=O)C(=O)N[C@@H]([C@@H](C)O)C(=O)N[C@@H](C)C(=O)N[C@@H]([C@@H](C)O)C(=O)N1)[C@@H](C)O)C(=O)N[C@@H](CC(C)C)C(=O)N[C@@H](CO)C(=O)N[C@@H](CO)C(=O)N[C@H](C(=O)N[C@@H](CC(N)=O)C(=O)N[C@H](C(=O)NCC(=O)N[C@@H](CO)C(=O)N[C@@H](CC(=O)O)C(=O)N[C@H](C(=O)N[C@@H](Cc1ccc(O)cc1)C(N)=O)[C@@H](C)O)C(C)C)[C@@H](C)O` [Peptide 3] (H-K([γGlu-γGlu-C20 diacid])CNTATCATQRLADFLRHSSPNFGPILSSTNVGSDTY-NH2; disulfide 2-7), the EC50 at hAMY3R (setting [4]) was 0.316 nM. For the same compound, the pEC50 at hAMY3R (setting [5]) was 9.50. For the same compound, the “ratio hCTR/hAMY3R” value at hAMY3R was 9.4. Moreover, the “ThT, pH 7.5 lag-time” value in data set [1] (setting [6]) was found to be 0.3 h. The recovery in data set [1] (pH 7.5) is given as 19%. Also, the kinetic solubility was determined as 1 µM (≈ 4.55 µg/mL) in data set [2] (setting [7]); 1 µM (≈ 4.55 µg/mL) in data set [2] (setting [8]); 1 µM (≈ 4.55 µg/mL) in data set [2] (setting [9]); 1 µM (≈ 4.55 µg/mL) in data set [2] (setting [10]); 2 µM (≈ 9.11 µg/mL) in data set [2] (setting [11]); 1 µM (≈ 4.55 µg/mL) in data set [2] (setting [12]). In data set [2] (setting [13]), this compound returned a kinetic solubility of 1 µM (≈ 4.55 µg/mL). The compound further yielded an HMWP in data set [3] (analogs 1–9 (pH 7.5 series)) of 24%.

Turning to `CC[C@H](C)[C@H](NC(=O)[C@H](C)NC(=O)CNC(=O)[C@H](Cc1ccccc1)NC(=O)[C@H](CC(N)=O)NC(=O)[C@@H]1CCCN1C(=O)[C@H](CO)NC(=O)[C@H](CO)NC(=O)[C@H](Cc1c[nH]cn1)NC(=O)[C@H](CCCNC(=N)N)NC(=O)[C@H](CC(C)C)NC(=O)[C@H](Cc1ccccc1)NC(=O)[C@H](CC(N)=O)NC(=O)[C@H](C)NC(=O)[C@H](CC(C)C)NC(=O)[C@H](CCCNC(=N)N)NC(=O)[C@H](CCC(N)=O)NC(=O)[C@@H](NC(=O)[C@H](C)NC(=O)[C@@H]1CSSC[C@H](NC(=O)[C@H](CCCCN)NC(=O)COCCOCCNC(=O)COCCOCCNC(=O)CC[C@H](NC(=O)CCCCCCCCCCCCCCCCCCC(=O)O)C(=O)O)C(=O)N[C@@H](CC(N)=O)C(=O)N[C@@H]([C@@H](C)O)C(=O)N[C@@H](C)C(=O)N[C@@H]([C@@H](C)O)C(=O)N1)[C@@H](C)O)C(=O)N1CCC[C@H]1C(=O)N[C@@H](CO)C(=O)N[C@@H](CO)C(=O)N[C@H](C(=O)N[C@@H](CC(N)=O)C(=O)N[C@H](C(=O)NCC(=O)N[C@@H](CO)C(=O)N[C@@H](CC(N)=O)C(=O)N[C@H](C(=O)N[C@@H](Cc1ccc(O)cc1)C(N)=O)[C@@H](C)O)C(C)C)[C@@H](C)O` [Peptide 10], at hAMY3R (setting [4]), the “hAMY3R pEC50” value is given as 9.36. At hAMY3R (setting [5]), the pEC50 was 9.36. Also, on hAMY3R, the “ratio hCTR/hAMY3R” value was determined as 23. In addition, the “ThT, pH 4.0 lag-time” value in data set [1] (250 μM peptide, 10 mM glycylglycine pH 4.0, 1 μM ThT, 37 °C, 960 rpm, 45 h, lowest of four replicas, average of experiments) was determined as 34 h. Besides, the recovery in data set [1] (pH 4.0) amounted to 0%. Further, the kinetic solubility in data set [2] (setting [7]), in data set [2] (setting [8]), in data set [2] (setting [9]), in data set [2] (setting [10]), in data set [2] (setting [11]) and in data set [2] (setting [12]) was not below 200 µM in each case. The compound also returned a solubility (kinetic) in data set [2] (setting [13]) not below 200 µM. In data set [3] (analogs 10–21 (pH 4.0 series)), this compound had an HMWP of 2.7%.

The record behind these values is publication PMC11284788, “NN1213 – A Potent, Long-Acting, and Selective Analog of Human Amylin” (Journal of Medicinal Chemistry, 2024).
